Test results taken from US11180474B2 (BRISTOL-MYERS SQUIBB COMPANY, priority 2016, dated 2021).

molecular target: T1, human TLR8 (Homo sapiens, UniProt Q9NR97); assay: TLR8 inhibition reporter assay (HEK-Blue cells, SEAP reporter, R848 stimulation); type: cell-based; settings: HEK-Blue cells overexpressing human TLR8, R848 15.9 μM
T1 construct: host or cells: HEK-Blue cells
T1 sequence (Q9NR97 27-1041): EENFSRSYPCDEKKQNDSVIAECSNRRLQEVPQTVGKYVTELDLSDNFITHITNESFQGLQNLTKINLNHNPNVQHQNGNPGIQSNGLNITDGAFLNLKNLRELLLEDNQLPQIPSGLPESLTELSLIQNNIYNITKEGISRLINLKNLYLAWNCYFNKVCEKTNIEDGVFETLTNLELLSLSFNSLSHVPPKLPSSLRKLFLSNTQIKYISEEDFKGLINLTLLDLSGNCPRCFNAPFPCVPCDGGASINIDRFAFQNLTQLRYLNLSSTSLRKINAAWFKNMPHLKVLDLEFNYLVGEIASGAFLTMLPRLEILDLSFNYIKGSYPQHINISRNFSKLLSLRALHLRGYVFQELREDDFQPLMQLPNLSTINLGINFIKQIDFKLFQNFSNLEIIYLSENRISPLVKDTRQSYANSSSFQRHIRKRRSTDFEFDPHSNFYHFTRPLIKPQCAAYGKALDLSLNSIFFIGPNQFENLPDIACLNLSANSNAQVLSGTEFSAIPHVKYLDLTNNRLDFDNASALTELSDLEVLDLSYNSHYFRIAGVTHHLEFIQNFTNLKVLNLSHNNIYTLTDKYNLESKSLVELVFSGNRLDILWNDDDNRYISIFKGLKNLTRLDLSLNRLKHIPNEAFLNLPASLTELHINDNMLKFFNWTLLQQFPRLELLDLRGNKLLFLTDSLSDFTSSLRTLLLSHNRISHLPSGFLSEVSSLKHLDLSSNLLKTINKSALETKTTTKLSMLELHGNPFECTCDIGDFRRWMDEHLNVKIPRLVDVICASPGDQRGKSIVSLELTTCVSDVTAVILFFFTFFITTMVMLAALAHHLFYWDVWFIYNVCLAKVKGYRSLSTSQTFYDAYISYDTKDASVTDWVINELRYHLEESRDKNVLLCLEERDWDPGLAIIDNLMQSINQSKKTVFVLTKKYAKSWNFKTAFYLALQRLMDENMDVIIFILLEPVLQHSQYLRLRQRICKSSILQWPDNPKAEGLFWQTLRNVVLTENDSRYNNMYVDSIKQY
Summary of the method: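 SEAP readout via HEK-Blue Detection medium after 22 h at 37 °C, 5% CO2 defines inhibition, normalized between agonist-plus-DMSO wells and a reference inhibitor. Compound dose range 0.05 nM–50 μM; TLR7 cells at 15,000/well (gardiquimod), TLR8 at 20,000/well (R848).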

IC50 [nM]	SMILES
671	COc1ccc(-c2[nH]c3ccc(C4CCN(C(=O)COc5cccnc5)CC4)cc3c2CC(F)(F)F)cc1OC [Example 349, 1-(4-(2-(3,4-dimethoxyphenyl)-3-(2,2,2-trifluoroethyl)-1H-indol-5-yl)piperidin-1-yl)-2-(pyridin-3-yloxy)ethan-1-one]
529	COc1ccc(-c2[nH]c3ccc(C4CCN(C(=O)CCC(=O)N(C)C)CC4)cc3c2CC(F)(F)F)cc1OC [Example 346, 4-(4-(2-(3,4-dimethoxyphenyl)-3-(2,2,2-trifluoroethyl)-1H-indol-5-yl)piperidin-1-yl)-N,N-dimethyl-4-oxobutanamide]
21	COc1ccc(-c2[nH]c3ccc(C4CCNCC4F)cc3c2C(C)C)cc1OC (single isomer, unassigned) [Example 321, 2-(3,4-dimethoxyphenyl)-5-(3-fluoropiperidin-4-yl)-3-isopropyl-1H-indole]
451	CCC(CC)NC(=O)CN1CCC(c2ccc3[nH]c(-c4ccc(OC)c(OC)c4)c(CC(F)(F)F)c3c2)CC1 [Example 378, 2-(4-(2-(3,4-dimethoxyphenyl)-3-(2,2,2-trifluoroethyl)-1H-indol-5-yl)piperidin-1-yl)-N-(pentan-3-yl)acetamide]
371	COc1ccc(-c2[nH]c3ccc(C4CCN(C(=O)CCCNC(C)=O)CC4)cc3c2CC(F)(F)F)cc1OC [Example 343, N-(4-(4-(2-(3,4-dimethoxyphenyl)-3-(2,2,2-trifluoroethyl)-1H-indol-5-yl)piperidin-1-yl)-4-oxobutyl)acetamide]
5080	COc1ccc(-c2[nH]c3ccc(C4CCN(C(=O)CCn5ccc6ccccc65)CC4)cc3c2CC(F)(F)F)cc1OC [Example 337, 1-(4-(2-(3,4-dimethoxyphenyl)-3-(2,2,2-trifluoroethyl)-1H-indol-5-yl)piperidin-1-yl)-3-(1H-indol-1-yl)propan-1-one]
43	COc1ccc(-c2[nH]c3ccc(C4CCN(CC(=O)N5CCC(C(N)=O)CC5)CC4)cc3c2CC(F)(F)F)cc1OC [Example 369, 1-(2-(4-(2-(3,4-dimethoxyphenyl)-3-(2,2,2-trifluoroethyl)-1H-indol-5-yl)piperidin-1-yl)acetyl)piperidine-4-carboxamide]
4110	COc1ccc(-c2[nH]c3ccc(C4CCN(C(=O)Cc5c[nH]c6ccccc56)CC4)cc3c2CC(F)(F)F)cc1OC [Example 332, 1-(4-(2-(3,4-dimethoxyphenyl)-3-(2,2,2-trifluoroethyl)-1H-indol-5-yl)piperidin-1-yl)-2-(1H-indol-3-yl)ethan-1-one]
765	COc1ccc(-c2[nH]c3ccc(C4CCN(C(=O)C[C@H](C)O)CC4)cc3c2CC(F)(F)F)cc1OC [Example 352, (S)-1-(4-(2-(3,4-dimethoxyphenyl)-3-(2,2,2-trifluoroethyl)-1H-indol-5-yl)piperidin-1-yl)-3-hydroxybutan-1-one]
74	COc1ccc(-c2[nH]c3ccc(C4CCN(CC(=O)N5CCN(c6ncccn6)CC5)CC4)cc3c2CC(F)(F)F)cc1OC [Example 368, 2-(4-(2-(3,4-dimethoxyphenyl)-3-(2,2,2-trifluoroethyl)-1H-indol-5-yl)piperidin-1-yl)-1-(4-(pyrimidin-2-yl)piperazin-1-yl)ethan-1-one]
109	COc1ccc(-c2[nH]c3ccc(C4CCN(CC(=O)N5CCN(C(C)=O)CC5)CC4)cc3c2CC(F)(F)F)cc1OC [Example 361, 1-(4-acetylpiperazin-1-yl)-2-(4-(2-(3,4-dimethoxyphenyl)-3-(2,2,2-trifluoroethyl)-1H-indol-5-yl)piperidin-1-yl)ethan-1-one]
23	COc1ccc(-c2[nH]c3ccc(C4CCN(CC(=O)N5CCN(c6ccncc6)CC5)CC4)cc3c2CC(F)(F)F)cc1OC [Example 366, 2-(4-(2-(3,4-dimethoxyphenyl)-3-(2,2,2-trifluoroethyl)-1H-indol-5-yl)piperidin-1-yl)-1-(4-(pyridin-4-yl)piperazin-1-yl) ethan-1-one]
